ChEMBL document CHEMBL3046241, “Synthesis and evaluation of 2-amino-5-sulfanyl-1,3,4-thiadiazoles as antidepressant, anxiolytic, and anticonvulsant agents” (Med Chem Res, 2009)
Activity calls are given as the source filed them. The rule behind the calls is not given here.

What was measured:
Mus musculus [1] = experiment: Anticonvulsant activity against maximal electroshock-induced seizures in Mus musculus Swiss albino (mouse) assessed as animals protected at 25 mg/kg; format: functional
Mus musculus [2] = experiment: Antidepressant activity in Mus musculus Swiss albino (mouse) assessed as duration of immobility at 25 mg/kg, ip measured after 1 hr by forced swim test test relative to pretreatment; format: functional; details: route intraperitoneal
Mus musculus [3] = experiment: Toxicity in Mus musculus Swiss albino (mouse) assessed as mortality at 25 mg/kg, po; format: organism-based; parameters: dose 25 mg/kg, route oral; details: in vivo
Mus musculus [4] = experiment: Anticonvulsant activity against maximal electroshock-induced seizures in Mus musculus Swiss albino (mouse) assessed as time duration of tonic limb extensor at 25 mg/kg; format: functional
Mus musculus [5] = experiment: Anxiolytic activity in Mus musculus Swiss albino (mouse) assessed as time spent in light chamber at 25 mg/kg by light-dark box test; format: functional
Mus musculus [6] = species on record: Mus musculus; experiment: Anxiolytic activity in Mus musculus Swiss albino (mouse) assessed as time spent in open arm by elevated plus maze test; format: functional
Mus musculus [7] = experiment: Anticonvulsant activity against pentylenetetrazole-induced seizures in Mus musculus Swiss albino (mouse) assessed as onset of seizures at 25 mg/kg, po administered 1 hr prior challenge; format: functional
Mus musculus [8] = experiment: Antidepressant activity in Mus musculus Swiss albino (mouse) assessed as as increase in mobile phase at 25 mg/kg, ip measured after 1 hr by tail suspension test; format: functional; details: route intraperitoneal
Mus musculus [9] = experiment: Toxicity in Mus musculus Swiss albino (mouse) assessed as mortality at 4 mg/kg, po; format: organism-based; parameters: dose 4 mg/kg, route oral; details: in vivo
Mus musculus [10] = experiment: Anticonvulsant activity against pentylenetetrazole-induced seizures in Mus musculus Swiss albino (mouse) assessed as onset of seizures at 4 mg/kg, po administered 1 hr prior challenge; format: functional, organism-based; parameters: dose 4 mg/kg
Mus musculus [11] = experiment: Anxiolytic activity in Mus musculus Swiss albino (mouse) assessed as time spent in light chamber at 2 mg/kg by light-dark box test; format: functional
Mus musculus [12] = experiment: Anticonvulsant activity against maximal electroshock-induced seizures in Mus musculus Swiss albino (mouse) assessed as animals protected at 40 mg/kg; format: functional
Mus musculus [13] = experiment: Anticonvulsant activity against maximal electroshock-induced seizures in Mus musculus Swiss albino (mouse) assessed as time duration of tonic limb extensor at 40 mg/kg; format: functional
Mus musculus [14] = experiment: Antidepressant activity in ip dosed Mus musculus Swiss albino (mouse) assessed as duration of immobility measured after 1 hr by forced swim test relative to pretreatment; format: functional

SMILES: O=C(Nc1nnc(Sc2ccc(C(Cl)(Cl)Cl)cc2)s1)c1ccccc1
- Activity (Mus musculus [1]): 0%
- Activity (Mus musculus [2]): -22.15%
- Activity (Mus musculus [3]): Non-toxic
- Time (Mus musculus [4]): 7.08 s
- Time (Mus musculus [5]): 152.33 s
- Time (Mus musculus [6]): 20.38 s
- Time (Mus musculus [7]): 71.21 s
- Activity (Mus musculus [8]): 30.7%

SMILES: CN1C(=O)CN=C(c2ccccc2)c2cc(Cl)ccc21 [DIAZEPAM]
- Activity (Mus musculus [9]): Non-toxic
- Time (Mus musculus [6]): 58.76 s
- Activity (Mus musculus [10]): Active
- Time (Mus musculus [11]): 193 s

SMILES: O=C(Nc1nnc(Sc2ccc(Br)cc2)s1)c1ccccc1
- Activity (Mus musculus [1]): 0%
- Activity (Mus musculus [2]): 1.1%
- Activity (Mus musculus [3]): Toxic
- Time (Mus musculus [4]): 7.96 s
- Time (Mus musculus [5]): 153.16 s
- Time (Mus musculus [6]): 20.88 s
- Time (Mus musculus [7]): 78.27 s
- Activity (Mus musculus [8]): 12%

SMILES: Cc1ccc(Sc2nnc(NC(=O)c3ccccc3)s2)cc1
- Activity (Mus musculus [1]): 0%
- Activity (Mus musculus [2]): 1.35%
- Activity (Mus musculus [3]): Non-toxic
- Time (Mus musculus [4]): 7.35 s
- Time (Mus musculus [5]): 143 s
- Time (Mus musculus [6]): 31.13 s
- Time (Mus musculus [7]): 78.35 s
- Activity (Mus musculus [8]): 17.26%

SMILES: O=C(Nc1nnc(Sc2ccc(F)cc2)s1)c1ccccc1
- Activity (Mus musculus [1]): 0%
- Activity (Mus musculus [2]): -20.3%
- Activity (Mus musculus [3]): Non-toxic
- Time (Mus musculus [4]): 6.37 s
- Time (Mus musculus [5]): 153.66 s
- Time (Mus musculus [6]): 32.694 s
- Time (Mus musculus [7]): 91.416 s
- Activity (Mus musculus [8]): 28.45%

SMILES: NS(=O)(=O)c1ccc(Sc2nnc(NC(=O)c3ccccc3)s2)cc1
- Activity (Mus musculus [1]): 0%
- Activity (Mus musculus [2]): -33.22%
- Activity (Mus musculus [3]): Toxic
- Time (Mus musculus [4]): 6.7 s
- Time (Mus musculus [5]): 163.66 s
- Time (Mus musculus [6]): 38.5 s
- Time (Mus musculus [7]): 86.98 s
- Activity (Mus musculus [8]): 49.86%

SMILES: O=C1NC(=O)C(c2ccccc2)(c2ccccc2)N1 [PHENYTOIN]
- Activity (Mus musculus [12]): 100%
- Time (Mus musculus [13]): 0 s

SMILES: CN(C)CCCN1c2ccccc2CCc2ccccc21.Cl [IMIPRAMINE HYDROCHLORIDE]
- Activity (Mus musculus [14]): -47.48%

SMILES: O=C(Nc1nnc(Sc2ccc(C(F)(F)F)cc2)s1)c1ccccc1
- Activity (Mus musculus [1]): 0%
- Activity (Mus musculus [2]): -29.78%
- Activity (Mus musculus [3]): Toxic
- Time (Mus musculus [4]): 6.18 s
- Time (Mus musculus [5]): 163 s
- Time (Mus musculus [6]): 29.86 s
- Time (Mus musculus [7]): 81.74 s
- Activity (Mus musculus [8]): 46.93%

SMILES: O=C(Nc1nnc(Sc2ccc(S(=O)(=O)Cl)cc2)s1)c1ccccc1
- Activity (Mus musculus [1]): 0%
- Activity (Mus musculus [2]): -33.58%
- Activity (Mus musculus [3]): Non-toxic
- Time (Mus musculus [4]): 6.25 s
- Time (Mus musculus [5]): 166.66 s
- Time (Mus musculus [6]): 34.11 s
- Time (Mus musculus [7]): 102.26 s
- Activity (Mus musculus [8]): 49.29%
